Results taken from ChEMBL document CHEMBL1255295, “Convergent in vivo and in vitro selection of ceftazidime resistance mutations at position 167 of CTX-M-3 beta-lactamase in hypermutable Escherichia coli strains” (2008).
Converted amounts (≈) assume the structure as drawn.

Experiments:
[1] = system: Escherichia coli; assay: Antimicrobial activity against ceftazidime-resistant Escherichia coli Irk2320 harboring beta-lactamase CTX-M-42 Pro167Thr mutant gene by agar dilution method; assay type: functional
[2] = system: Escherichia coli; assay: Antimicrobial activity against ceftazidime-resistant Escherichia coli Irk2322 harboring beta-lactamase CTX-M-42 Pro167Thr mutant gene by agar dilution method; assay type: functional
[3] = system: Escherichia coli; assay: Antimicrobial activity against Escherichia coli AB14156 harboring beta-lactamase CTX-M-42 Pro167Thr mutant gene by agar dilution method; assay type: functional
[4] = system: Escherichia coli; assay: Antimicrobial activity against Escherichia coli EPI300 harboring pCC1 carrying beta-lactamase CTX-M-3 gene by agar dilution method; assay type: functional
[5] = system: Escherichia coli; assay: Antimicrobial activity against Escherichia coli EPI300 harboring pCC1 carrying beta-lactamase CTX-M-42 Pro167Thr mutant gene by agar dilution method; assay type: functional
[6] = system: Escherichia coli; assay: Antimicrobial activity against Escherichia coli Irk1224 type 2 mutant harboring beta-lactamase CTX-M-3 Ser167 mutant gene by agar dilution method; assay type: functional
[7] = system: Escherichia coli; assay: Antimicrobial activity against Escherichia coli Irk1224 type 3 mutant harboring beta-lactamase CTX-M-3 Lys136 mutant gene by agar dilution method; assay type: functional
[8] = system: Escherichia coli; assay: Antimicrobial activity against Escherichia coli GM2995 harboring plasmid pCC1 carrying beta-lactamase CTX-M-3 gene by agar dilution method; assay type: functional
[9] = system: Escherichia coli; assay: Antimicrobial activity against Escherichia coli GM2995 harboring plasmid pCC1 carrying beta-lactamase CTX-M-3 from by agar dilution method; assay type: functional
[10] = system: Escherichia coli; assay: Antimicrobial activity against Escherichia coli GM2995 harboring plasmid pCC1 carrying beta-lactamase CTX-M-3 Ser167 mutant gene by agar dilution method
[11] = system: Escherichia coli; assay: Antimicrobial activity against Escherichia coli Irk1224 type 1 mutant harboring beta-lactamase CTX-M-3 by agar dilution method; assay type: functional
[12] = system: Escherichia coli; assay: Antimicrobial activity against Escherichia coli EPI300 Irk1224 type 1 mutant harboring beta-lactamase CTX-M-3 gene by agar dilution method; assay type: functional
[13] = system: Escherichia coli; assay: Antimicrobial activity against Escherichia coli EPI300 Irk1224 type 2 mutant harboring beta-lactamase CTX-M-3 Ser167 mutant gene by agar dilution method
[14] = system: Escherichia coli; assay: Antimicrobial activity against Escherichia coli EPI300 Irk1224 type 3 mutant harboring CTX-M-3 beta-lactamase Lys136 mutant gene by agar dilution method
[15] = system: Escherichia coli; assay: Antimicrobial activity against Escherichia coli EPI300 harboring GM2995 pCC1 carrying beta-lactamase CTX-M-3 gene by agar dilution method; assay type: functional
[16] = system: Escherichia coli; assay: Antimicrobial activity against Escherichia coli EPI300 harboring GM2995 pCC1 carrying beta-lactamase CTX-M-3 Ser167 mutant gene by agar dilution method
[17] = system: Escherichia coli; assay: Antimicrobial activity against Escherichia coli EPI300 harboring GM2995 pCC1-1224 carrying CTX-M-3 beta-lactamase gene from by agar dilution method; assay type: functional
[18] = system: Escherichia coli; assay: Antimicrobial activity against Escherichia coli Irk1224 harboring beta-lactamase CTX-M-3 by agar dilution method; assay type: functional
[19] = system: Escherichia coli; assay: Antimicrobial activity against ceftazidime-resistant Escherichia coli Irk2320 harboring beta-lactamase CTX-M-42 Pro167Thr mutant gene by agar dilution method in presence of beta-lactamase inhibitor clavulanic acid
[20] = system: Escherichia coli; assay: Antimicrobial activity against ceftazidime-resistant Escherichia coli Irk2322 harboring beta-lactamase CTX-M-42 Pro167Thr mutant gene by agar dilution method in presence of beta-lactamase inhibitor clavulanic acid
[21] = system: Escherichia coli; assay: Antimicrobial activity against Escherichia coli AB14156 harboring beta-lactamase CTX-M-42 Pro167Thr mutant gene by agar dilution method in presence of beta-lactamase inhibitor clavulanic acid
[22] = system: Escherichia coli; assay: Antimicrobial activity against Escherichia coli EPI300 harboring pCC1 carrying beta-lactamase CTX-M-3 by agar dilution method in presence of beta-lactamase inhibitor clavulanic acid
[23] = system: Escherichia coli; assay: Antimicrobial activity against Escherichia coli EPI300 harboring pCC1 carrying beta-lactamase CTX-M-42 Pro167Thr mutant gene by agar dilution method in presence of beta-lactamase inhibitor clavulanic acid
[24] = system: Escherichia coli; assay: Antimicrobial activity against Escherichia coli EPI300 harboring plasmid pCC1 by agar dilution method in presence of beta-lactamase inhibitor clavulanic acid
[25] = system: Escherichia coli; assay: Antimicrobial activity against Escherichia coli Irk1224 harboring beta-lactamase CTX-M-3 by agar dilution method in presence of beta-lactamase inhibitor clavulanic acid
[26] = system: Escherichia coli; assay: Antimicrobial activity against Escherichia coli EPI300 transformant harboring pCC1 by agar dilution method; assay type: functional

Row | Compound | MIC [1] [µg/mL] | MIC [2] [µg/mL] | MIC [3] [µg/mL] | MIC [4] [µg/mL] | MIC [5] [µg/mL] | MIC [6] [µg/mL] | MIC [7] [µg/mL] | MIC [8] [µg/mL] | MIC [9] [µg/mL] | MIC [10] [µg/mL] | MIC [11] [µg/mL] | MIC [13] [µg/mL] | MIC [14] [µg/mL] | MIC [16] [µg/mL] | MIC [18] [µg/mL] | MIC [19] [µg/mL] | MIC [20] [µg/mL] | MIC [21] [µg/mL] | MIC [22] [µg/mL] | MIC [26] [µg/mL] | further results
1 | CC1(C)S[C@@H]2[C@H](NC(=O)[C@H](N)c3ccccc3)C(=O)N2[C@H]1C(=O)O [AMPICILLIN] | ≥ 256 | ≥ 256 | ≥ 256 | ≥ 256 | ≥ 256 | ≥ 256 | ≥ 256 | ≥ 256 | ≥ 256 | 128 (≈ 366 µM) | ≥ 256 | 128 (≈ 366 µM) | 32 (≈ 91.6 µM) | 128 (≈ 366 µM) | ≥ 256 |  |  |  |  |  | MIC [12]: ≥ 256 µg/mL; MIC [15]: ≥ 256 µg/mL; MIC [17]: ≥ 256 µg/mL
2 | CO/N=C(\C(=O)N[C@@H]1C(=O)N2C(C(=O)O)=C(COC(C)=O)CS[C@H]12)c1csc(N)n1 [CEFOTAXIME] |  |  |  |  |  | 64 (≈ 141 µM) | 64 (≈ 141 µM) | 4 (≈ 8.78 µM) | ≥ 256 | 1 (≈ 2.2 µM) | ≥ 256 | 1 (≈ 2.2 µM) | 1 (≈ 2.2 µM) | 1 (≈ 2.2 µM) |  | 4 | 4 | 4 | 4 |  | MIC [23]: 4 µg/mL; MIC [24]: 4 µg/mL; MIC [25]: 4 µg/mL
3 | CO/N=C(\C(=O)N[C@@H]1C(=O)N2C(C(=O)O)=C(CSc3nc(=O)c(O)nn3C)CS[C@H]12)c1csc(N)n1 [CEFTRIAXONE] | 8 (≈ 14.4 µM) | 8 (≈ 14.4 µM) | 8 (≈ 14.4 µM) | 4 (≈ 7.21 µM) | 1 (≈ 1.8 µM) |  |  |  |  |  |  |  |  |  | ≥ 256 |  |  |  |  | 0.06 (≈ 0.108 µM) | 
4 | CC(C)(O/N=C(\C(=O)N[C@@H]1C(=O)N2C(C(=O)[O-])=C(C[n+]3ccccc3)CS[C@H]12)c1csc(N)n1)C(=O)O [CEFTAZIDIME] |  |  |  |  |  | ≥ 256 | ≥ 256 | 1 (≈ 1.83 µM) | 32 (≈ 58.5 µM) | 32 (≈ 58.5 µM) | ≥ 256 | 16 (≈ 29.3 µM) | 8 (≈ 14.6 µM) | 16 (≈ 29.3 µM) |  | 4 | 4 | 4 | 4 | 0.25 (≈ 0.457 µM) | MIC [23]: 4 µg/mL; MIC [24]: 4 µg/mL; MIC [12]: 1 µg/mL (≈ 1.83 µM); MIC [15]: 1 µg/mL (≈ 1.83 µM); MIC [17]: 1 µg/mL (≈ 1.83 µM); MIC [25]: 4 µg/mL
5 | CC1(C)S[C@@H]2[C@H](NC(=O)[C@H](N)c3ccc(O)cc3)C(=O)N2[C@H]1C(=O)O [AMOXICILLIN] | 16 (≈ 43.8 µM) | 16 (≈ 43.8 µM) | 16 (≈ 43.8 µM) | 8 (≈ 21.9 µM) | 8 (≈ 21.9 µM) |  |  |  |  |  |  |  |  |  | 32 (≈ 87.6 µM) | 8 | 8 | 8 | 4 | 2 (≈ 5.47 µM) | MIC [23]: 4 µg/mL; MIC [24]: 1 µg/mL; MIC [25]: 16 µg/mL
6 | CO/N=C(\C(=O)N[C@@H]1C(=O)N2C(C(=O)[O-])=C(C[N+]3(C)CCCC3)CS[C@H]12)c1csc(N)n1 | 1 (≈ 2.08 µM) | 1 (≈ 2.08 µM) | 1 (≈ 2.08 µM) | 0.5 (≈ 1.04 µM) | 0.25 (≈ 0.52 µM) |  |  |  |  |  |  |  |  |  | 32 (≈ 66.6 µM) |  |  |  |  | 0.06 (≈ 0.125 µM) | 
